Assay results from patent publication US20260198526A1, “METHOD FOR PROMOTING DIFFERENTIATION OF ANIMAL CELL” (Ajinomoto Co., Inc., priority 2023, published 2026).

Test system: chicken muscle stem cells
Assay: Muscle differentiation of chicken muscle stem cells in serum-free differentiation medium (MyHC immunocytochemistry, Fusion Index)
Assay type: cell-based
Conditions: additive concentrations of Table 1, second day, FIG. 2
Procedure: Muscle tissue was collected from edible bovine shank meat, and CD56-positive cells were isolated using a Magnetic-Activated Cell Sorting (MACS) system to obtain bovine muscle stem cells. Separately, muscle stem cells were isolated from edible chicken breast meat.
Then, on the second day, the expression of myosin heavy chain (MyHC) was measured by immunocytochemistry. The cells were fixed with 4% paraformaldehyde (Nacalai Tesque, Cat No. 09154-85) for 15 minutes. After washing twice with Dulbecco's phosphate-buffered saline (without Ca, Mg) (Nacalai Tesque, Cat No. 14249-24), the cells were immersed in Dulbecco's phosphate-buffered saline (without Ca, Mg) containing 0.1% Triton X-100 (Sigma, Cat No. T9284) for 10 minutes. Then, the solution was replaced with a blocking buffer and left to stand for 1 hour. As the blocking buffer, a solution was used in which Dulbecco's phosphate-buffered saline (without Ca, Mg) was supplemented with 5% horse serum and 0.1% Triton X-100. […] MyHC-positive cells were detected with a fluorescence microscope ECLIPSE Ti2-E (Nikon), and the Fusion Index (=Number of MyHC-positive nuclei/Total number of nuclei×100(%)) was calculated. […]
Then, on the second day, the expression of myosin heavy chain (MyHC) was measured by the same method as in (1-2).

Structure (SMILES): OCc1ccccc1O[C@@H]1O[C@H](CO)[C@@H](O)[C@H](O)[C@H]1O [Salicin]
- muscle differentiation (MyHC expression, Fusion Index): promoted the muscle differentiation of chicken cells
